Holding throughout (test): relative viability (nuclei count vs DMSO), 5 days (fraction); higher = more cells survive
Compound in test [1]: CC1=CC(=CC=C1)NC2=NC(=CS2)C3=CC=NC=C3 + Cc1nc(Nc2ncc(C(=O)Nc3c(C)cccc3Cl)s2)cc(N2CCN(CCO)CC2)n1 [Dasatinib] (partner 0.075 µM)
The essentials:
(§1)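 Lung cancer cell lines in 1536-well plates got either a single drug or a fixed anchor-drug dose together with five library-drug doses (not always all listed) in √10 steps, by pin tool, on the day after seeding. Nuclei were counted after 5 days, and relative viability is the treated-to-vehicle ratio of nuclei counts. Values are medians of duplicate plates.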

Compound in the test “Masitinib + Crizotinib”: Cc1ccc(NC(=O)c2ccc(CN3CCN(C)CC3)cc2)cc1Nc1nc(-c2cccnc2)cs1 [Masitinib] + C[C@@H](Oc1cc(-c2cnn(C3CCNCC3)c2)cnc1N)c1c(Cl)ccc(F)c1Cl [Crizotinib] (partner 1 µM)
Summed up:
as §1

Compound in test [2]: CC1=CC(=CC=C1)NC2=NC(=CS2)C3=CC=NC=C3 + CS(=O)(=O)CCNCc1ccc(-c2ccc3ncnc(Nc4ccc(OCc5cccc(F)c5)c(Cl)c4)c3c2)o1 [Lapatinib] (partner 2 µM)
Summed up:
as §1

Compound in the test “Masitinib + Olaparib”: Cc1ccc(NC(=O)c2ccc(CN3CCN(C)CC3)cc2)cc1Nc1nc(-c2cccnc2)cs1 [Masitinib] + O=C(c1cc(Cc2n[nH]c(=O)c3ccccc23)ccc1F)N1CCN(C(=O)C2CC2)CC1 [Olaparib] (partner 8 µM)
Summed up: as §1

This passage reports relative viability results from the supplement of paper PMC10307832.

In the case of HARA, the relative viability in test [1] (first compound 0.08 µM) came out at 0.194; in test [1] (first compound 0.253 µM), 0.269; in test [1] (first compound 0.8 µM) it was 0.399; in test [1] (first compound 2.53 µM) it was 0.281; in test [1] (first compound 8 µM), 0.278; in the test with Masitinib + Crizotinib (first compound 0.01 µM), 0.961. The relative viability came out at 0.75 with Masitinib + Crizotinib (first compound 0.03162 µM); 1.25 in the test with Masitinib + Crizotinib (first compound 0.1 µM); 1.04 in the test with Masitinib + Crizotinib (first compound 0.3162 µM); 1.01 in the test with Masitinib + Crizotinib (first compound 1 µM); 0.483 in test [2] (first compound 0.08 µM); 0.641 in test [2] (first compound 0.253 µM). The relative viability in test [2] (first compound 0.8 µM) was 0.509; in test [2] (first compound 2.53 µM) it was 0.474; in test [2] (first compound 8 µM), 0.527; with Masitinib + Olaparib (first compound 0.01 µM), 0.749; in the test with Masitinib + Olaparib (first compound 0.03162 µM), 0.507; with Masitinib + Olaparib (first compound 0.1 µM) it was 1.15. Also, the relative viability with Masitinib + Olaparib (first compound 1 µM) worked out at 1.13.

For the cell line HCC-15, the relative viability was 0.467 in test [1] (first compound 0.08 µM); 0.469 in test [1] (first compound 0.253 µM); 0.589 in test [1] (first compound 0.8 µM); 0.499 in test [1] (first compound 2.53 µM); 0.53 in test [1] (first compound 8 µM); 0.745 with Masitinib + Crizotinib (first compound 0.01 µM). In addition, the relative viability with Masitinib + Crizotinib (first compound 0.03162 µM) turned out to be 0.826; in the test with Masitinib + Crizotinib (first compound 0.1 µM), 0.798; with Masitinib + Crizotinib (first compound 0.3162 µM), 1.04; with Masitinib + Crizotinib (first compound 1 µM), 0.976; in test [2] (first compound 0.08 µM) it was 0.809; in test [2] (first compound 0.253 µM) it was 0.841. In addition, the relative viability in test [2] (first compound 0.8 µM) amounted to 0.848; in test [2] (first compound 2.53 µM), 0.845; in test [2] (first compound 8 µM) it was 0.739; with Masitinib + Olaparib (first compound 0.01 µM), 0.628; with Masitinib + Olaparib (first compound 0.03162 µM), 0.669; with Masitinib + Olaparib (first compound 0.1 µM), 0.753. The relative viability in the test with Masitinib + Olaparib (first compound 0.3162 µM) was found to be 0.735; with Masitinib + Olaparib (first compound 1 µM), 0.82.

With HCC-44, the relative viability with Masitinib + Crizotinib (first compound 0.01 µM) was determined as 0.699; with Masitinib + Crizotinib (first compound 0.03162 µM) it was 0.844; in the test with Masitinib + Crizotinib (first compound 0.1 µM) it was 0.875; with Masitinib + Crizotinib (first compound 0.3162 µM), 0.713; in the test with Masitinib + Crizotinib (first compound 1 µM) it was 0.739; in test [2] (first compound 0.08 µM), 0.757. Also, the relative viability in test [2] (first compound 0.253 µM) was determined as 0.755; in test [2] (first compound 0.8 µM), 0.831; in test [2] (first compound 2.53 µM), 0.777; in test [2] (first compound 8 µM), 0.812; with Masitinib + Olaparib (first compound 0.01 µM), 0.939; in the test with Masitinib + Olaparib (first compound 0.03162 µM), 0.968. The relative viability with Masitinib + Olaparib (first compound 0.1 µM) was 0.979; in the test with Masitinib + Olaparib (first compound 0.3162 µM) it was 0.916; in the test with Masitinib + Olaparib (first compound 1 µM), 0.963.

Regarding HCC-78, the relative viability in test [1] (first compound 0.253 µM) stood at 0.376; in test [1] (first compound 0.8 µM), 0.398; in test [1] (first compound 2.53 µM), 0.379; in test [1] (first compound 8 µM) it was 0.523; with Masitinib + Crizotinib (first compound 0.01 µM), 0.356; with Masitinib + Crizotinib (first compound 0.03162 µM), 0.445. Further, the relative viability with Masitinib + Crizotinib (first compound 0.1 µM) stood at 0.334; with Masitinib + Crizotinib (first compound 0.3162 µM) it was 0.288; in the test with Masitinib + Crizotinib (first compound 1 µM), 0.293; in test [2] (first compound 0.08 µM) it was 0.708; in test [2] (first compound 0.253 µM), 0.528; in test [2] (first compound 0.8 µM), 0.862. Further, the relative viability in test [2] (first compound 2.53 µM) was found to be 0.623; in test [2] (first compound 8 µM), 0.673; in the test with Masitinib + Olaparib (first compound 0.01 µM), 0.798; with Masitinib + Olaparib (first compound 0.03162 µM) it was 0.855; with Masitinib + Olaparib (first compound 0.1 µM), 0.871; with Masitinib + Olaparib (first compound 0.3162 µM), 0.712. In the test with Masitinib + Olaparib (first compound 1 µM), the relative viability came out at 0.824.

In the case of HCC-366, the relative viability came out at 0.543 in test [1] (first compound 0.08 µM); 0.567 in test [1] (first compound 0.253 µM); 0.625 in test [1] (first compound 0.8 µM); 0.48 in test [1] (first compound 2.53 µM); 0.365 in test [1] (first compound 8 µM); 0.467 in the test with Masitinib + Crizotinib (first compound 0.01 µM). In addition, the relative viability was 0.517 in the test with Masitinib + Crizotinib (first compound 0.03162 µM); 0.721 with Masitinib + Crizotinib (first compound 0.1 µM); 0.334 with Masitinib + Crizotinib (first compound 0.3162 µM); 0.444 in the test with Masitinib + Crizotinib (first compound 1 µM); 0.848 in test [2] (first compound 0.08 µM); 1.07 in test [2] (first compound 0.253 µM). Also, the relative viability is 1.01 in test [2] (first compound 0.8 µM); 1.05 in test [2] (first compound 2.53 µM); 0.951 in test [2] (first compound 8 µM); 0.384 with Masitinib + Olaparib (first compound 0.03162 µM); 0.357 in the test with Masitinib + Olaparib (first compound 0.1 µM); 0.343 with Masitinib + Olaparib (first compound 0.3162 µM). Also, the relative viability with Masitinib + Olaparib (first compound 1 µM) came to 0.396.

On to HCC-827, for which the relative viability in test [1] (first compound 0.08 µM) was 0.422; in test [1] (first compound 0.253 µM), 0.352; in test [1] (first compound 0.8 µM), 0.437; in test [1] (first compound 2.53 µM), 0.455; in test [1] (first compound 8 µM) it was 0.464; in the test with Masitinib + Crizotinib (first compound 0.01 µM) it was 0.725. Moreover, the relative viability with Masitinib + Crizotinib (first compound 0.03162 µM) came to 0.961; with Masitinib + Crizotinib (first compound 0.1 µM), 0.95; with Masitinib + Crizotinib (first compound 0.3162 µM), 0.893; with Masitinib + Crizotinib (first compound 1 µM), 0.895; in test [2] (first compound 0.08 µM) it was 0.204; in test [2] (first compound 0.253 µM), 0.187. For the same cell line, the relative viability in test [2] (first compound 0.8 µM) is 0.191; in test [2] (first compound 2.53 µM) it was 0.187; in test [2] (first compound 8 µM) it was 0.179; with Masitinib + Olaparib (first compound 0.01 µM), 0.564; with Masitinib + Olaparib (first compound 0.03162 µM) it was 0.642; with Masitinib + Olaparib (first compound 0.1 µM), 0.655. Further, the values for the relative viability with Masitinib + Olaparib (first compound 0.3162 µM) and with Masitinib + Olaparib (first compound 1 µM) were 0.624 and 0.695, respectively.

As to IA-LM, the relative viability with Masitinib + Crizotinib (first compound 0.1 µM) stood at 0.871; with Masitinib + Crizotinib (first compound 0.3162 µM), 0.618; with Masitinib + Crizotinib (first compound 1 µM) it was 0.84; in test [2] (first compound 0.08 µM), 0.65; in test [2] (first compound 0.253 µM) it was 0.503; in test [2] (first compound 0.8 µM), 0.561. Also, the relative viability in test [2] (first compound 2.53 µM) was found to be 0.508; in test [2] (first compound 8 µM), 0.572; in the test with Masitinib + Olaparib (first compound 0.01 µM), 0.896; with Masitinib + Olaparib (first compound 0.03162 µM), 0.875; in the test with Masitinib + Olaparib (first compound 0.1 µM) it was 0.929; in the test with Masitinib + Olaparib (first compound 0.3162 µM) it was 0.796. Moreover, the relative viability with Masitinib + Olaparib (first compound 1 µM) turned out to be 0.836.
